Data from article PMC5901744 (Science (New York, N.Y.), 2017).

Assays:
[1] = test system: SaHEPD (hydroxyethylphosphonate dioxygenase from Streptomyces albus; class II HEPD); experiment: steady-state kinetics; assay type: biochemical; details: Fe(II), O2
[2] = test system: SaHEPD (hydroxyethylphosphonate dioxygenase from Streptomyces albus; class II HEPD); details: read-out: Km,HEP; Fe(II), O2; product MPn instead of HMP

O=P(O)(O)CCO [2-HEP, 2-hydroxyethylphosphonate]
Km,HEP [1]: very similar to those of purified wild-type SaHEPD (Fig. S6 and S7, Table S2) | Km [2]: 15 ± 2 µM
